Tests used:
Assay in all cases: relative viability (nuclei count vs DMSO), 5 days (fraction); higher = more cells survive
[1] = compound: CC1CC(=O)N(C2=CN=C(N=C2N1C3CCCC3)NC4=C(C=C(C=C4)C(=O)NC5CCN(CC5)C)OC)C [NPK76-II-72-1] + N=C(N)NC(=N)NCCc1ccccc1 [Phenformin] (partner 250 µM)
Outline: (§1)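 Medians of duplicate plates are given as relative viability. That measure is the nuclei count in treated wells divided by the count in vehicle wells. Counts were taken on 4× images of lung cancer cell lines in 1536-well plates, 5 days after pin-tool dosing the day after seeding with one drug alone or a fixed anchor-drug dose plus five library-drug doses (not always all listed) in √10 steps.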

[2] = compound: CC1CC(=O)N(C2=CN=C(N=C2N1C3CCCC3)NC4=C(C=C(C=C4)C(=O)NC5CCN(CC5)C)OC)C [NPK76-II-72-1] + CC1(C)CCC(c2ccc(Cl)cc2)=C(CN2CCN(c3ccc(C(=O)NS(=O)(=O)c4ccc(N[C@H](CCN5CCOCC5)CSc5ccccc5)c(S(=O)(=O)C(F)(F)F)c4)cc3)CC2)C1 [Navitoclax] (partner 0.5 µM)
Outline: as §1

[3] = compound: CC[C@@H]1C(=O)N(C)c2cnc(Nc3ccc(C(=O)NC4CCN(C)CC4)cc3OC)nc2N1C1CCCC1 [BI-2536] + Cc1nc(NC(=O)N2CCC[C@H]2C(N)=O)sc1-c1ccnc(C(C)(C)C(F)(F)F)c1 [Alpelisib] (partner 2 µM)
Outline: as §1

[4] = compound: CC[C@@H]1C(=O)N(C)c2cnc(Nc3ccc(C(=O)NC4CCN(C)CC4)cc3OC)nc2N1C1CCCC1 [BI-2536] + Nc1nc2[nH]cc(CCc3ccc(C(=O)N[C@@H](CCC(=O)O)C(=O)O)cc3)c2c(=O)[nH]1 [Pemetrexed] (partner 0.2 µM)
Outline: as §1

## UMC-11
[1]; first compound 0.01 µM
  relative viability: 0.318
[1]; first compound 0.03162 µM
  relative viability: 0.32
[1]; first compound 0.1 µM
  relative viability: 0.346
[1]; first compound 1 µM
  relative viability: 0.344
[2]; first compound 0.01 µM
  relative viability: 0.313
[2]; first compound 0.03162 µM
  relative viability: 0.276
[2]; first compound 0.1 µM
  relative viability: 0.302
[2]; first compound 0.3162 µM
  relative viability: 0.305
[2]; first compound 1 µM
  relative viability: 0.357
[3]; first compound 0.01 µM
  relative viability: 0.978
[3]; first compound 0.03162 µM
  relative viability: 0.733
[3]; first compound 0.1 µM
  relative viability: 0.312
[3]; first compound 0.3162 µM
  relative viability: 0.152
[3]; first compound 1 µM
  relative viability: 0.126
[4]; first compound 0.01 µM
  relative viability: 0.8
[4]; first compound 0.03162 µM
  relative viability: 0.57
[4]; first compound 0.1 µM
  relative viability: 0.242
[4]; first compound 0.3162 µM
  relative viability: 0.194
[4]; first compound 1 µM
  relative viability: 0.184
